# Test results published in article PMC7468576 (Acta Pharmacologica Sinica, 2019).
# How the values were obtained:
# [1] = target: recombinant human IDO1 (rhIDO1) (Homo sapiens, UniProt P14902); experiment: Enzymatic assay of IDO1; type: biochemical
# [2] = target: rhTDO2 (purified TDO2 enzyme) (Homo sapiens, UniProt P48775); experiment: Enzymatic assay of TDO2; type: biochemical
# [3] = target: human IDO1 in HEK 293 cells (Homo sapiens, UniProt P14902); experiment: Cell-based assay of IDO1 activity; details: for inhibition of the cellular activity of IDO1: HEK 293 cells overexpressing human IDO1, kynurenine released, Fig. 2c
# Sequence of human IDO1 in HEK 293 cells (P14902 whole entry): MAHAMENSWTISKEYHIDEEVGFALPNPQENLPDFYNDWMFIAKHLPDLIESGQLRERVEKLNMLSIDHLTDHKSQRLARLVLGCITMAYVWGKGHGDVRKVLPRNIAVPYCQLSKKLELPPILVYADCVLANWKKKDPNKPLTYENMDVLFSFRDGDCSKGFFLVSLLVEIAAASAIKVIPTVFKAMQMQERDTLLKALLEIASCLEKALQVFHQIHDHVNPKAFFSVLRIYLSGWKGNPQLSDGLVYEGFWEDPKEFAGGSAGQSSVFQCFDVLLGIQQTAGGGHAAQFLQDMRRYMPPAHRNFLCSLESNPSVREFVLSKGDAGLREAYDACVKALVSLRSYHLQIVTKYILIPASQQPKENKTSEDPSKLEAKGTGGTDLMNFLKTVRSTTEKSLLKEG
# [4] = target: human TDO2 in HEK 293 cells (Homo sapiens, UniProt P48775); experiment: Cell-based assay of TDO2 activity
# IDO1 [5] = target: T1, IDO1 (Homo sapiens, UniProt P14902); experiment: biochemical; details: for mode of inhibition: L-tryptophan 7.5 μM to 30 μM, Fig. 4
# T1 sequence (P14902 whole entry): as above
# IDO1 [6] = target: T1, IDO1; experiment: IDO1 absorbance spectra; type: binding; details: compound 20 μM, rhIDO1 3 μM; for absorbance of ferric-IDO1 at 404 nm: compared with control; for absorbance of ferrous-IDO1 at 428 nm: sodium dithionite
# HEK 293 cells = experiment: Cell viability assay; type: cell-based, human; details: conditions used for the kynurenine assay
# Sequence of recombinant human IDO1 (rhIDO1) (P14902 whole entry): as above
inhibition at 20 µM ([1]; read-out: IDO1 inhibitory activity of tanshinone derivatives) [%],SMILES,IC50 [1] [nM],IC50 [2] [nM],IC50 [3] [nM],inhibition of the cellular activity of IDO1 [3] [%],IC50 [4] [nM],Ki (IDO1 [5]) [nM],mode of inhibition (IDO1 [5]),absorbance of ferric-IDO1 at 404 nm (IDO1 [6]),absorbance of ferrous-IDO1 at 428 nm (IDO1 [6]),effect on cell viability (CCK8) (HEK 293 cells)
–,"CC(C)=CC[C@@H](O)C1=CC(=O)c2c(O)ccc(O)c2C1=O [Compound 7, shikonin]",980,5050,2200,101.8,1400,1400,uncompetitive inhibition,decreased,remained unchanged,slightly reduced cell viability
–,"Cc1cccc2c3c(ccc12)C1=C(C(=O)C3=O)[C@@H](C)CO1 [Compound 8, dihydrotanshinone I]",2800,5100,25700,83.6,13300,2800,uncompetitive inhibition,decreased,remained unchanged,no effect on cell viability
> 40,"C[C@H]1COC2=C1C(=O)C(=O)c1c2ccc2c1CCCC2(C)C [Compound B06F5, cryptotanshinone]",–,–,–,–,–,–,–,–,–,–
